Data as given in PMC3234597, “Two Panels of Steroid Receptor Luciferase Reporter Cell Lines for Compound Profiling” (Combinatorial Chemistry & High Throughput Screening, 2011).
“Also recorded” adds a separate entry of the source. Counter-ions that a name gives are not always drawn. Like-named read-outs stand apart in the source and are kept apart here.

Columns and labels:
Assay type in all cases: cell-based
[1] = molecular target: T1, MR-LBD fused to Gal4-DBD (Homo sapiens, UniProt P08235); assay: U2OS-MR-LBD/9xGal4UAS luciferase reporter cell line
T1 construct: MR-LBD was cloned by RT-PCR from total RNA isolated from HEK293 cells; expressed in transfected cells; host or cells: U2OS
T1 sequence (P08235 726-964 limits assumed): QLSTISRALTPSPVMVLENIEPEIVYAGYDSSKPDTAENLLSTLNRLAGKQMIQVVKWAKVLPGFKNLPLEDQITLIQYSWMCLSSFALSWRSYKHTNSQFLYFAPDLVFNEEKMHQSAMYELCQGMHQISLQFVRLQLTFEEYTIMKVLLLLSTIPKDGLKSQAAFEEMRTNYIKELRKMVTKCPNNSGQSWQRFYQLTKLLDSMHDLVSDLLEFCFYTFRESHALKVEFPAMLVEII

[2] = molecular target: T2, human MR (full-length) (Homo sapiens, UniProt P08235); assay: U2OS-MR/MMTV luciferase reporter cell line (full-length receptor)
T2 construct: expression vectors encoding full-length steroid receptors: pcDNA3-hAR, pcDNA3-hGR and pcDNA3-hMR; expressed in transfected cells; host or cells: U2OS
T2 sequence (P08235 1-984): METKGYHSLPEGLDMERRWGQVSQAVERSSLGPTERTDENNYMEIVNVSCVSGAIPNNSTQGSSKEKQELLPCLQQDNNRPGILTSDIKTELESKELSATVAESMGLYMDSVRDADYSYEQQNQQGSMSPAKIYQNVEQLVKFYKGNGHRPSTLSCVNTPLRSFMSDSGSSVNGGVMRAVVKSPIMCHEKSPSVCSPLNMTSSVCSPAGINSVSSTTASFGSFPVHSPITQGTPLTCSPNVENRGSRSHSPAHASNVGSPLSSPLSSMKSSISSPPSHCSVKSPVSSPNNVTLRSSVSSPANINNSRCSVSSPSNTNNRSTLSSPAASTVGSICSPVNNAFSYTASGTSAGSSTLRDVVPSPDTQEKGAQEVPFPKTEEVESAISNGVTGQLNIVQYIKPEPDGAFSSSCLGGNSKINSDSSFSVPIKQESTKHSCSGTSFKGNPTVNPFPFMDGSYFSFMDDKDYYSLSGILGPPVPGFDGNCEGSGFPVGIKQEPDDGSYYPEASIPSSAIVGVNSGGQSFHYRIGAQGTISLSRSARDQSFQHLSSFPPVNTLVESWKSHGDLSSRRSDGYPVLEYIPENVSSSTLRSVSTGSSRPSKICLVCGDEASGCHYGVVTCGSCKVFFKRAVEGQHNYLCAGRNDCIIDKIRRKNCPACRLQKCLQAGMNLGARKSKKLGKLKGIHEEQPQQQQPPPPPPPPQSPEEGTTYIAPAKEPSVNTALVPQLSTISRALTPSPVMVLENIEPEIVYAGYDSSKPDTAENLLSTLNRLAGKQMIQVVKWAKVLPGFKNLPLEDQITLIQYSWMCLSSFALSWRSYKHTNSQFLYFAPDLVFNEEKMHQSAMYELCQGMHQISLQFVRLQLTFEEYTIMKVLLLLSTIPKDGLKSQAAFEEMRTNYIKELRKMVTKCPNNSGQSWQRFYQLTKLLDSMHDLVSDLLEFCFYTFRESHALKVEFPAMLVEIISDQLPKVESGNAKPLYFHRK

[3] = molecular target: T3, PR-LBD fused to Gal4-DBD (Homo sapiens, UniProt P06401); assay: U2OS-PR-LBD/9xGal4UAS luciferase reporter cell line
T3 construct: PR-LBD region was PCR amplified using the following primer combination; host or cells: U2OS
T3 sequence (P06401 679-913 limits assumed): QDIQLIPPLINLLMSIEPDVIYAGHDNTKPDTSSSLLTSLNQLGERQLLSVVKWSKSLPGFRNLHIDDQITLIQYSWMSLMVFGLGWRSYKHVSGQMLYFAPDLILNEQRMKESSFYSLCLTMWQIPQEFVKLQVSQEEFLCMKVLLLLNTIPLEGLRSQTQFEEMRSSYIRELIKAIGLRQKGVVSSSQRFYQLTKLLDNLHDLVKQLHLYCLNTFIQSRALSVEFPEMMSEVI

[4] = molecular target: T4, ERβ-LBD fused to Gal4-DBD (Homo sapiens, UniProt Q92731); assay: U2OS-ERβ-LBD/9xGal4UAS luciferase reporter cell line
T4 construct: region comprising ERβ-LBD and a piece of the hinge region; expressed in transfected cells; host or cells: U2OS

[5] = molecular target: T5, human ERβ (full-length) (Homo sapiens, UniProt Q92731); assay: U2OS-ERβ/3xERE luciferase reporter cell line (full-length receptor)
T5 construct: expression vectors encoding full-length steroid receptors: pcDNA3-hERα and pcDNA3-ERβ; expressed in transfected cells; host or cells: U2OS

[6] = molecular target: T6, GR-LBD fused to Gal4-DBD (Homo sapiens, UniProt P04150); assay: U2OS-GR-LBD/9xGal4UAS luciferase reporter cell line
T6 construct: expressed in transfected cells; host or cells: U2OS
T6 sequence (P04150 524-758 limits assumed): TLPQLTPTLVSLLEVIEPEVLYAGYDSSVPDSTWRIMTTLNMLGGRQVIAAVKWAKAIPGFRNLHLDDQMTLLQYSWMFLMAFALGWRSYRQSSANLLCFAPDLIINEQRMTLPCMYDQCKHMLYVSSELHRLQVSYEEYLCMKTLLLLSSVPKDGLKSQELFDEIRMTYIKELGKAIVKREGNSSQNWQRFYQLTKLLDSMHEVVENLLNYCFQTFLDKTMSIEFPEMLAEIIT

[7] = molecular target: T7, human GR (full-length) (Homo sapiens, UniProt P04150); assay: U2OS-GR/3xGRE luciferase reporter cell line (full-length receptor)
T7 construct: expression vectors encoding full-length steroid receptors: pcDNA3-hAR and pcDNA3-hGR; host or cells: U2OS
T7 sequence (P04150 1-777): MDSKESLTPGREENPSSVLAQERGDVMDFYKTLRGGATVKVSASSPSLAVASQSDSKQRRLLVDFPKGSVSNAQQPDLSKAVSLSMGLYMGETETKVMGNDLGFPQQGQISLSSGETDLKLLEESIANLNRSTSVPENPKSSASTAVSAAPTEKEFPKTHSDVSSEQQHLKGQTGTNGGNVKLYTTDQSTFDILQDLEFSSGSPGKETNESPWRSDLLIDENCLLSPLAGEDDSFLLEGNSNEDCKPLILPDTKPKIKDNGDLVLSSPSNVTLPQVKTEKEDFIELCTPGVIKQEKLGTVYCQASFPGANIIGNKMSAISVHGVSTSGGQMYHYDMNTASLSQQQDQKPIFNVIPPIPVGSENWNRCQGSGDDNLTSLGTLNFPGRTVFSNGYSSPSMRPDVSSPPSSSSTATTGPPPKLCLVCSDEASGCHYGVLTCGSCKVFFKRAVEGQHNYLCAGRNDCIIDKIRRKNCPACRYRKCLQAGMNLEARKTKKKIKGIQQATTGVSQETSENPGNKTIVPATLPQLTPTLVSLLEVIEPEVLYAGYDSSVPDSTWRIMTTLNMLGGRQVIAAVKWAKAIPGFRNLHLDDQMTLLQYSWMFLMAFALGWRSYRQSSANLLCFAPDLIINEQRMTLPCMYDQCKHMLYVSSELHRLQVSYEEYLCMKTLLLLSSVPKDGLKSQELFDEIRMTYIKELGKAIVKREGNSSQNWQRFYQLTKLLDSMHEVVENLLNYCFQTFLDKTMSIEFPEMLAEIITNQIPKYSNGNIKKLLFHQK

[8] = molecular target: T7, human GR (full-length); assay: U2OS-GR/MMTV luciferase reporter cell line (full-length receptor)
[9] = antagonist mode, PR-LBD/9xGal4UAS, log10 of molar IC50, mean ± SEM, read-out: Log IC50 (converted)

T4 sequence (Q92731 264-498 limits assumed): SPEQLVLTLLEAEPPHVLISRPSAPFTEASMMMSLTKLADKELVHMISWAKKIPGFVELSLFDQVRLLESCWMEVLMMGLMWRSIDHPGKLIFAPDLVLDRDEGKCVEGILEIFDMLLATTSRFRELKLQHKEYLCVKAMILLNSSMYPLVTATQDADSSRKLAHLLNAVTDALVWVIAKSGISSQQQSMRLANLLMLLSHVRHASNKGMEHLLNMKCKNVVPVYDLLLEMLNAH
T5 sequence (Q92731 whole entry): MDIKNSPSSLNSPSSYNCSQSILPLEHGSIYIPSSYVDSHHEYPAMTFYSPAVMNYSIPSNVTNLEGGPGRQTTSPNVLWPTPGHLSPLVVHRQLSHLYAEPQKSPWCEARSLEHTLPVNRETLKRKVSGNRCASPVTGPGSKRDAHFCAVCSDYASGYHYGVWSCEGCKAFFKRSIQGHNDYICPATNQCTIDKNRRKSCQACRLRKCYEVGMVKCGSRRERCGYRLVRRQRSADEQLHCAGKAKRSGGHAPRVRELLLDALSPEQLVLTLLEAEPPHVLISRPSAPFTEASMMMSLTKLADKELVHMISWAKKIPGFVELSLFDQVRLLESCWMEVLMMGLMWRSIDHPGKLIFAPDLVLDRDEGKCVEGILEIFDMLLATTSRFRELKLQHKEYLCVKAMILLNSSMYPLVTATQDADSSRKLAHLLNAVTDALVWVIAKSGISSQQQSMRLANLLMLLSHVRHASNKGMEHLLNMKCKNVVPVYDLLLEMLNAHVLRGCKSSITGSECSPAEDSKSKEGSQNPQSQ

| Structure (SMILES) | EC50 ([1]; read-out: Log EC50 (converted)) [µM] | EC50 ([2]; read-out: Log EC50 (converted)) [µM] | IC50 [3, 9] [µM] | EC50 ([3]; read-out: Log EC50 (converted)) [µM] | EC50 [3] [µM] | IC50 [3] [µM] | EC50 [1] [µM] | EC50 [2] [µM] | other results |
| --- | --- | --- | --- | --- | --- | --- | --- | --- | --- |
| CC/C(=C(/CC)c1ccc(O)cc1)c1ccc(O)cc1 [DES, Diethylstilbestrol] | > 10 | > 10 | – | – | – | – | – | – | – |
| CC1(C)NC(=O)N(c2ccc([N+](=O)[O-])c(C(F)(F)F)c2)C1=O [Nilutamide, nilutamide] | > 10 | > 10 | > 10 | > 10 | – | – | – | – | EC50 ([4]; read-out: Log EC50 (converted)): > 10 µM; EC50 ([5]; read-out: Log EC50 (converted)): > 10 µM |
| C[C@]12CC[C@H]3[C@@H](CCC4=CC(=O)CC[C@@]43C)[C@@H]1CC[C@@H]2O [Testosterone, testosterone] | – | – | – | – | 0.0468 | > 10 | > 10 | > 10 | EC50 [6]: > 10 µM; EC50 [7]: > 10 µM; EC50 [8]: > 10 µM; EC50 [4]: 2.88 µM; EC50 [5]: 0.49 µM |
| C[C@H]1C[C@H]2[C@@H]3CCC4=CC(=O)C=C[C@]4(C)[C@@]3(F)[C@@H](O)C[C@]2(C)[C@@]1(O)C(=O)CO [Betamethasone, betamethasone] | – | – | > 10 | 4.79 | – | – | – | – | activity profile in words ([1]; MR-LBD expressing reporter cell line, agonist and antagonist mode): only weakly and partially activated; also recorded: pronounced full antagonist effect; activity profile in words ([2]; full-length MR format, antagonist mode): no sign of antagonistic activity |
| C[C@]12CCC(=O)C[C@@H]1CC[C@@H]1[C@@H]2CC[C@]2(C)[C@@H](O)CC[C@@H]12 [Dihydrotestosterone, 5α-androstan-17β-ol-3-one] | – | – | – | – | 0.398 | > 10 | > 10 | > 10 | – |
| O=C(c1ccc(OCCN2CCCCC2)cc1)c1c(-c2ccc(O)cc2)sc2cc(O)ccc12 [Raloxifene hydrochloride, raloxifene hydrochloride] | > 10 | > 10 | – | – | – | – | – | – | – |
